# Data: patent US8796302B2 (priority 2004, dated 2014)
# What was measured:
# [1] = test system: dopaminergic neurons in rat primary mesencephalic neuron-glia cultures; test: [3H]DA uptake in LPS-treated mesencephalic neuron-glia cultures; assay type: cell-based; details: LPS 5 ng/ml, 7 days, LPS alone 40.1 ± 3.2; for DA uptake, LPS + Peptide 10^−13: peptide 10^−13, 30 min pretreatment; for DA uptake, LPS + Peptide 10^−14: peptide 10^−14, 30 min pretreatment; for DA uptake, LPS + Peptide 10^−15: peptide 10^−15, 30 min pretreatment
# Protocol: Neuron-glia cultures were prepared from the ventral mesencephalic tissues of embryonic day 13-14 Fisher F344 rats or day 12-13 wild-type C57BL/6J (gp91phox^+/+) mice. Dissociated cells were seeded at 1×10^5/well and 5×10^5/well to poly-D-lysine-coated 96-well and 24-well plates, respectively. Cells were maintained at about 37° C. in a humidified atmosphere of 5% CO2 and 95% air, in minimal essential medium (MEM) containing 10% fetal bovine serum (FBS), 10% horse serum (HS), 1 gm/l glucose, 2 mM L-glutamine, 1 mM sodium pyruvate, 100 μM nonessential amino acids, 50 U/ml penicillin, and 50 μg/ml streptomycin. Seven-day-old cultures were used for treatment.
# Dextromethorphan (obtained from Sigma-Aldrich (St. Louis, Mo.) as dextromethorphan hydrobromide) was freshly prepared as a stock solution (1 mM) in ddH2O and sterile-filtered right before use. For treatment of the cultures, the DM was serially diluted (10×) with fresh culture medium containing 2% of fetal bovine and horse serum. The neuron-glia cultures were pretreated with 10^−5-10^−17M DM 30 minutes prior to treatment with 10 ng/ml of LPS.
# Seven days after treatment, the degeneration of dopaminergic neurons was assessed by [^3H]-dopamine (DA) uptake assays. The [^3H]-DA uptake assays were performed as follows. Cultures were washed twice with warm Krebs-Ringer buffer (KRB, 16 mM sodium phosphate, 119 mM NaCl, 4.7 mM KCl, 1.8 mM CaCl2, 1.2 mM MgSO4, 1.3 mM EDTA, and 5.6 mM glucose; pH7.4) and then incubated for about 20 minutes at about 37° C. with 1 μM [^3H]-DA in KRB in order to allow for the uptake of DA. Afterwards, the cultures were washed (three times) with ice-cold KRB and the cells were collected in 1 N NaOH. Radioactivity was determined by liquid scintillation counting.
# This example tests whether or not post-treatment with DM is still neuroprotective in LPS-induced neurotoxicity. Neuron-glia co-cultures as prepared in Example 1 were first treated with LPS (20 ng/ml) for twelve hours, and then LPS was removed by removing the media from the cultures and washing twice with PBS. Different concentrations of DM (10^−5, 10^−10, and 10^−14 M) were then added to the cultures and incubation was continued for another 6 or 7 days. The DA uptake and the superoxide production were measured as in Example 1 and 5.
# Neuron-glia cell cultures were prepared as in Example 1, and pretreated with the various peptide fragments of Table 1 (peptide fragments were obtained from BACHEM) for 30 minutes followed by addition of 5 ng/ml of LPS. DA neurotoxicity was measured as an Example 1 at 7 days post treatment.
# DA neurotoxicity was measured at 7 days post treatment as in Example 1. Dopaminergic neuronal death was determined at 7 days post treatment using immunocytochemical staining as in Example 2.
# Neuron-glia cultures were prepared from the ventral mesencephalic tissues of embryonic day 13-14 rats. Dissociated cells were seeded at 1×10^5/well and 5×10^5/well to poly-D-lysine-coated 96-well and 24-well plates, respectively.
# [2] = test system: dopaminergic neurons in rat primary mesencephalic neuron-glia cultures; test: DA uptake / TH-IR count in neuron-glia cultures without toxin (spontaneous DA neuronal death, neurotrophic effect); assay type: cell-based; details: sodium butyrate, indicated concentrations, 7 days
# Protocol: In Example 23, [^3H]DA uptake assay and immunohistochemical analysis for TH-IR neurons were used to assess the viability of DA neurons in rat primary mesencephalic neuron-glia cultures in which approximately 1% of the neurons are dopaminergic. [^3H]DA uptake assays were performed as described in Example 1.
# Rat primary mesencephalic neuron-glia cultures were prepared from the ventral mesencephalic tissues of embryonic day 13-14 Fisher 344 rats. Dissociated cells were seeded at a density of 5×10^5/well to poly-D-lysine-precoated 24-well plates. Cells were maintained at 37° C. in a humidified atmosphere of 5% CO2 and 95% air, in minimal essential medium containing 10% fetal bovine serum (FBS), 10% horse serum, 1 gm/l glucose, 2 mM L-glutamine, 1 mM sodium pyruvate, 100 μM non-essential amino acids, 50 U/ml penicillin, and 50 μg/ml streptomycin. Unless otherwise indicated, seven-day-old cultures were used for treatment.
# Seven days after seeding, each well was treated with indicated concentration of VPA or its vehicle. Seven days after treatment, the viability of dopaminergic neurons was assessed by [^3H]DA uptake assays. Quantified results are expressed as mean±SEM of percentage of vehicle-treated cultures from three experiments performed in duplicate. *, p<0.05 compared with the corresponding vehicle-treated control cultures.
# Next, the rat primary mesencephalic neuron-glia cultures were treated with 0.6 mM VPA for various times to determine the treatment time-dependency. Rat primary mesencephalic neuron-glia cultures in a 24-well plate were treated with 0.6 mM VPA or its vehicle for indicated time 7 days after seeding. The viability of dopaminergic neurons was assessed by [^3H]DA uptake assays, shown in FIG. 37 or counting of TH-IR neurons, shown in FIG. 38. Quantified results are expressed as mean±SEM of percentage of vehicle-treated control cultures from three experiments performed in duplicate. *, p<0.05 compared with the corresponding vehicle-treated control cultures. […] VPA time-dependently induces survival-promoting effects against spontaneous DA neuronal death in rat primary mesencephalic neuron-glia cultures.
# Rat primary mesencephalic neuron-glia cultures seeded in a 24-well culture plate at density of 5×10^5 per well were treated with indicated concentrations of sodium butyrate or its vehicle 7 days after seeding. The viability of dopaminergic neurons was assessed by DA uptake assays 7 days after sodium butyrate addition.
# Mesencephalic neuron-glia cultures, prepared as described above, were pretreated with vehicle or 3-HM (1-5 μM) before the treatment of LPS (10 ng/ml). Seven days later, the degeneration of dopaminergic neurons was determined by the functional assay of [^3H]DA uptake and by the morphometric measurement of dopaminergic neurons following immunostaining with an anti-TH antibody. [^3H]DA and immunostaining are performed as described above.
# [3] = test system: dopaminergic neurons in mesencephalic neuron-enriched cultures; test: [3H]DA uptake in neuron-enriched cultures (direct, conditioned media, reconstituted); assay type: cell-based, rat; details: neuron-enriched cultures, 7 days; drug 0.6 mM or conditioned medium
# Protocol: Mixed-glia cultures were first prepared from brains of 1-day-old Fisher 344 rat pups, as described previously (Liu, et al. 2001). Mechanically dissociated brain cells (5×10^7) were seeded onto 150 cm^2 culture flasks in Dulbecco's modified Eagle's medium containing 10% heat-inactivated FBS, 2 mM L-glutamine, 1 mM sodium pyruvate, 100 μM non-essential amino acids, 50 U/ml penicillin, and 50 μg/ml streptomycin. The cultures were maintained at 37° C. in a humidified atmosphere of 5% CO2 and 95% air, and medium was replenished 4 days after the initial seeding. Upon reaching confluence (usually 12-14 days later), microglia were detached from astroglia by shaking the flasks for 5 hours at 180 rpm. Astroglia were then detached with trypsin-EDTA and seeded in the same culture medium. After five or more consecutive passages, cells were seeded onto 24-well plates (10^5/well) for experiments. Immunocytochemical staining of the astroglia enriched cultures with either anti-GFAP or anti-OX-42 antibody indicated astroglial purity of greater than 98% and less than 2% of microglia contamination.
# Conditioned medium derived from rat primary astroglial cultures treated with vehicle (ACM) or 0.6 mM VPA (ACM-VPA) were harvested after 12, 24 and 48 hours of incubation. Midbrain neuron-enriched cultures seeded in 24-well plates at a density of 5×10^5 cells/well were treated with vehicle, VPA, ACM or ACM-VPA for 7 days. Neurotrophic effect was quantified by [^3H]DA uptake assay.
# Rat mesencephalic neuron-enriched cultures are prepared from dissociated ventral mesencephalic cells from embryonic day 13-14 Fisher 344 rats were seeded first at a density of 5×10^5/well to poly-D-lysine-precoated 24-well culture plates. […] Three days later, the culture medium was replaced with the maintenance medium. Routinely, the seven-day-old neuron-enriched cultures were used for treatment. […] Of the Neu-N immunoractive neurons, 2.7-3.9% was TH-IR neurons.
# To explore whether astroglial cells are also the main target of sodium butyrate-induced neurotrophic effect, we prepared media conditioned by incubation of astroglial cultures in the absence or presence 0.6 mM sodium butyrate. Conditioned medium derived from rat primary astroglial cultures treated with vehicle (ACM) or 0.6 mM sodium butyrate (ACM-Sodium butyrate) were harvested after 48 hours of incubation. Midbrain neuron-enriched cultures seeded in 24-well plates at a density of 5×10^5 cells/well were treated with vehicle, sodium butyrate, ACM or ACM-Sodium butyrate for 7 days. Seven days after treatment, neurotrophic effect for dopaminergic neurons was assessed by [^3H]DA uptake assays.
# Various concentrations of 3-HM (0.1-5 μM) or vehicle were added to the following different cell cultures: neuron-enriched cultures (A); reconstituted cultures by adding 10% and 20% (5×10^4/well and 1×10^5/well) of microglia to the neuron-enriched cultures (B); reconstituted cultures by adding 40% and 50% (2×10^5/well and 2.5×10^5/well) of astroglia to the neuron-enriched cultures (C). Cultures are prepared as described in Example 25. The [^3H]DA uptake measurements were performed […] after treatment. Results were expressed as a percentage of the vehicle-treated control cultures and were the mean±SE from five (A) and four (B,C) independent experiments in triplicate. *P<0.05 and **P, 0.001 compared with the vehicle-treated control cultures. #P<0.05 compared with the augmented cultures with 40% astroglia. N, neuron-enriched cultures; N+10% (20%) MG: 10% (20%) of microglia were added back to the neuron-enriched cultures; N+40% (50%) AS: 40% (50%) of astroglia were added back to the neuron-enriched cultures.
# To confirm the possible role of astroglia in the neurotrophic effect of 3-HM, conditioned media from astroglia-enriched cultures (prepared as described above) treated with either 3-HM (1-5 μM) or vehicle for 24 hours were prepared. […]
Molecule,"DA uptake, LPS + Peptide 10^−13 [1]","DA uptake, LPS + Peptide 10^−14 [1]","DA uptake, LPS + Peptide 10^−15 [1]",neurotrophic effect (DA uptake) in neuron-glia culture [2],increase in DA uptake [3]
"DynA 2-17: peptide fragment of Dynorphin A (YGGFLRRIRPKLKWDNQ), residues 2-17",44.3 ± 8.2% of the control cultures,62.7 ± 8.0% of the control cultures,50.2 ± 6.9% of the control cultures,,
"CCCC(=O)[O-].[Na+] [sodium butyrate, Sodium Butyrate]",,,,pronounced neurotrophic effect,less than 2 fold
Tyr-Gly-Gly-Phe-Leu-Arg-Arg-Ile-Arg-Pro-Lys-Leu-Lys-Trp-Asp-Asn-Gln (YGGFLRRIRPKLKWDNQ; listed as Homo sapiens) [DynA 1-17],52.1 ± 6.2% of the control cultures,58.0 ± 6.5% of the control cultures,51.0 ± 9.4% of the control cultures,,
